Measured values taken from patent US20200031778A1, “NOVEL 5-SUBSTITUTED IMIDAZOLYLMETHYL DERIVATIVES” (Bayer CropScience Aktiengesellschaft, priority 2016, published 2020).

Assay: Log P by HPLC on reversed phase columns (EEC directive 79/831 Annex V.A8; methods [a], [b], [c])
Type: physicochemical
Settings: not given
Experimental: Measurement of Log P values was performed according to EEC directive 79/831 Annex V.A8 by HPLC (High Performance Liquid Chromatography) on reversed phase columns with the following methods: • ^[a] Log P value is determined by measurement of LC-UV, in an acidic range, with 0.1% formic acid in water and acetonitrile as eluent (linear gradient from 10% acetonitrile to 95% acetonitrile). • ^[b] Log P value is determined by measurement of LC-UV, in a neutral range, with 0.001 molar ammonium acetate solution in water and acetonitrile as eluent (linear gradient from 10% acetonitrile to 95% acetonitrile). • ^[c] Log P value is determined by measurement of LC-UV, in an acidic range, with 0.1% phosphoric acid and acetonitrile as eluent (linear gradient from 10% acetonitrile to 95% acetonitrile).
If more than one Log P value is available within the same method, all the values are given and separated by “+”.
Calibration was done with straight-chain alkan2-ones (with 3 to 16 carbon atoms) with known Log P values (measurement of Log P values using retention times with linear interpolation between successive alkanones). Lambda-max-values were determined using UV-spectra from 200 nm to 400 nm and the peak values of the chromatographic signals.

| SMILES | LogP |
| --- | --- |
| CC(O)(Cn1cncc1Cl)c1cnc(Oc2ccc(Cl)cc2)cc1Cl (centres unmarked) [I-162] | 2.41^[a] |
| CC(C)(C)c1ccc(C#CC(O)(Cn2cncc2C#N)C2(F)CC2)cc1 (centres unmarked) [I-372] | 3.39^[a] |
| CC(=O)c1cncn1CC(C)(O)c1ccc(Oc2ccc(Br)cc2)cc1F (centres unmarked) [I-190] | 2.75^[a] |
| N#Cc1cncn1CC(O)(C#CCC1CCCCC1)CC1CC1 (centres unmarked) [I-428] | 3.29^[a] |
| COC(Cn1cncc1C#N)c1ccc(Oc2ccc(C(F)(F)F)cc2)cc1C(F)(F)F (centres unmarked) [I-67] | 4.27^[a] |
| CC(O)(Cn1cncc1Cl)c1ccc(Oc2ccc(Br)nc2)cc1Cl (centres unmarked) [I-203] | 2.11^[a] |
| OC(Cn1cncc1Br)c1ccc(Oc2ccc(Cl)cc2)cc1Br (centres unmarked) [I-24] | 2.68^[a] |
| CC(C)(C)C(O)(Cn1cncc1C#N)c1ccc(Cl)cc1Cl (centres unmarked) [I-310] | 3.37^[a] |
| N#Cc1cncn1CC(O)(c1ccc(Cl)cc1F)C1CCCCC1 (centres unmarked) [I-482] | 3.42^[a] |
| OC(Cn1cncc1Cl)c1ccc(Oc2ccc(Cl)nc2)cc1Cl (centres unmarked) [I-42] | 1.86^[a] |
| N#Cc1cncn1CC(O)(CC1CC1)c1ccc(Cl)cc1C(F)(F)F (centres unmarked) [I-460] | 3.10^[a] |
| CCCC(C)C(O)(Cn1cncc1C#N)c1ccc(Cl)cc1Cl (single isomer, unassigned) [I-315] | 3.63^[a] |
| N#Cc1cncn1CC(O)(c1cc(F)c(F)cc1Cl)C1(Cl)CC1 (centres unmarked) [I-584] | 2.49^[a] |
| N#Cc1cncn1CC(O)(c1ccc(Cl)cc1Cl)C1(Cl)CC1 (centres unmarked) [I-235] | 2.67^[a] |
| OC(Cn1cncc1Cl)c1ccc(Oc2ccc(Cl)cn2)cc1Cl (centres unmarked) [I-37] | 1.98^[a] |
| CCOC(Cn1cncc1Cl)c1ccc(Oc2ccc(Br)cc2)cc1Br (centres unmarked) [I-58] | 4.21^[a] |
| N#Cc1cncn1CC(O)(c1ccc(F)c(F)c1F)C1(Cl)CC1 (centres unmarked) [I-626] | 2.37^[a] |
| N#Cc1cncn1CC(O)(c1ccc(F)cc1F)C1(F)CC1 (centres unmarked) [I-352] | 2.08^[a] |
| N#Cc1cncn1CC(O)c1ccccc1C(F)(F)F (centres unmarked) [I-150] | 1.81^[a] |

| SMILES | LogP |
| --- | --- |
| N#Cc1cncn1CC(O)(c1cc(F)c(Cl)cc1Br)C1(F)CC1 (centres unmarked) [I-525] | 2.65^[a] |
| N#Cc1cncn1CC(O)(c1cc(F)cc(F)c1)C1(F)CC1 (centres unmarked) [I-473] | 2.14^[a] |
| CC(C)C(O)(Cn1cncc1C#N)c1ccc(F)cc1Cl (centres unmarked) [I-425] | 2.60^[a] |
| N#Cc1cncn1CC(O)c1ccc(Oc2ccc(Cl)cc2F)nc1C(F)(F)F (centres unmarked) [I-136] | 2.94^[a] |
| N#Cc1cncn1CC(O)(c1cccc(F)c1Cl)C1(F)CC1 (centres unmarked) [I-555] | 2.12^[a] |
| N#Cc1cncn1CC(O)(c1cc(F)ccc1F)C1(F)CC1 (centres unmarked) [I-523] | 2.02^[a] |
| CC(O)(Cn1cncc1C#N)c1ccc(Oc2ccc(Cl)cc2)cc1C(F)(F)F (centres unmarked) [I-209] | 3.51^[a] |
| C[Si](C)(C)C=CC(O)(Cn1cncc1C#N)C1(F)CC1 (centres unmarked) [I-679] | 2.77^[a] |
| CC(C)CC#CC(O)(CC1CC1)Cn1cncc1C#N (centres unmarked) [I-451] | 2.52^[a] |
| CCOC(Cn1cncc1C(N)=O)c1ccc(Oc2ccc(Cl)cc2)cc1C(F)(F)F (centres unmarked) [I-83] | 2.54^[a] |
| C[Si](C)(C)C#Cc1ccc(C(O)(Cn2cncc2C#N)C2(F)CC2)c(F)c1 (centres unmarked) [I-608] | 3.79^[a] |
| CC1(C(O)(Cn2cncc2C#N)c2ccc(F)cc2)CC1 (centres unmarked) [I-450] | 2.19^[a] |
| N#Cc1cncn1CC(O)(c1ccc(Br)nc1Cl)C1(F)CC1 (centres unmarked) [I-683] | 2.01^[a] |
| CCc1cc(Cl)ccc1C(O)(Cn1cncc1C#N)C1(Cl)CC1 (centres unmarked) [I-335] | 3.00^[a] |
| CCOC(Cn1cncc1C#N)c1ccc(Oc2ccc(Br)cc2)cc1Br (centres unmarked) [I-64] | 4.64^[a] |
| CCCC(O)(Cn1cncc1C#N)c1ccc(C(F)(F)F)cc1Cl (centres unmarked) [I-421] | 3.23^[a] |
| CCCC(C)C(O)(Cn1cncc1C#N)c1ccc(Cl)cc1 (single isomer, unassigned) [I-328] | 3.15^[a] |
| N#Cc1cncn1CC(O)(c1c(F)cc(F)cc1F)C1(F)CC1 (centres unmarked) [I-518] | 2.07^[a] |

Same assay, conditions: reversed phase HPLC column; method [a]: LC-UV, acidic range, 0.1% formic acid in water and acetonitrile as eluent (linear gradient from 10% to 95% acetonitrile)

| SMILES | chromatographic logP |
| --- | --- |
| O=C(Cn1cncc1Cl)c1ccc(Oc2ccc(OC(F)(F)F)cc2)c(Br)c1 [IX-10] | 3.41 |
